Type in all cases: in vivo, SD rats
Conditions in all cases: rat, in vivo

In test [1] the test system is SOD. Briefly: SOD determination, cerebral ischemic reperfusion MCAO model. How it is done:
(§1) Rats were intraperitoneally injected with 10% chloral hydrate 350 mg/kg after anesthesia and opened up at the center of the neck in accordance with the Zea Longa modified method. The right common carotid artery was separated, and the right external carotid artery branches was ligated. A small opening was made at the distal end of the external carotid artery, and a previously prepared thread was inserted through the common carotid artery and the external carotid artery bifurcation into the internal carotid artery, till the anterior end of the middle cerebral artery, with an immersed depth of 18 to 19 mm. The thread was then secured, and the wound was sutured layer by layer. After the operation, the rats were placed in a clean incubator to wake up. […] The sham operation group, the ischemic reperfusion group, and the Example groups were prepared strictly according to the requirements of the cerebral ischemic reperfusion model, while in the sham operation group the thread was put only into the external carotid artery. The animals were allowed to eat and drink freely after waking up. After 2 h, the thread was pulled out to achieve reperfusion. The sham operation group, the ischemic reperfusion group, and the Example groups were administered intravenously the aqueous solution of the biphenyl derivatives in PEG400 at 40 mg/kg (40 mg/kg means that 40 mg of the test compound per kg of the body weight of rats) 30 min before reperfusion and 12 h after reperfusion, respectively. The sham operation group and the ischemic reperfusion group were injected with the same amount of blank PEG400 aqueous solution at the same time point.
(§2) 24 hours after reperfusion, 8 rats in each group were sacrificed by decapitation, the brain was removed, rinsed with PBS (pH 7.4) at −20° i for 20 min, evenly sliced (with a thickness of 2 mm), stained in a 2% TTC solution at 37°% in the dark for 30 min, fixed in 10% formalin for 24 h, and photographs were taken to analyze the infarct volume. A mixture of femoral arterial and venous blood was drawn from another 8 rats in each group under anesthesia, placed in a low temperature centrifuge at 4° C., centrifuged at 3500 r/min for 20 min, and the supernatant was stored in a refrigerator at −20° C. ready for SOD and MDA detection. After the blood was drawn, a perfusion needle was insert through the apex to the ascending aorta, and saline at 4° C. was rapid infused until the effluent became clear, followed by 4% paraformaldehyde phosphate buffer perfusion for fixation; the brain was removed by craniotomy, and brain tissues 2 mm in front of and behind the optic chiasma were taken and fixed, dehydrated, rendered transparent, impregnated in wax, and embedded. Brain continuous coronary tissue pathological sections were consecutively cut for later use. The remaining 8 rats in each group were sacrificed, brains were removed, the ischemic brain hemispheres were immediately taken on an ice tray, and 10% brain tissue homogenate was prepared for the detection of IL-1β and TNF-α.
(§3) SOD and MDA were determined strictly in accordance with instructions of the kit.

The subject of test [2] is MDA. As to the kind of experiment: MDA determination, cerebral ischemic reperfusion MCAO model. How it is done:
as §1, §2, §3

Test [3] concerns Fas. As to the kind of experiment: Fas determination (immunohistochemical method), cerebral ischemic reperfusion MCAO model. How it is done:
as §1, §2
(§4) The immunohistochemical method was used for determination. Brain tissue paraffin sections were dewaxed into water, washed with 3% H2O2 to eliminate endogenous peroxidase activity, and rinsed with distilled water for 3 times. Sodium citrate buffer was used for antigen heat repairing, and blocking with calf serum was carried out at room temperature for 15 min; a rabbit anti-mouse Fas antibody was added dropwise, allowed to stand at 4°t overnight, biotinylated goat anti-rabbit IgG was added dropwise, and heated in a water bath at 37°a for 20 min. Washing with PBS for 5 min was continuously repeated 4 times, followed by staining with DAB and sufficient washing without counterstaining. The sections were then gradient dehydrated with alcohol, made transparent with toluene, sealed and fixed. Images were captured by a video camera under high-power optical microscope and inputted into the image analysis system for image analysis. […]

Test [4] concerns SOD. Briefly: SOD determination, permanent cerebral ischemia model. How it is done: as §1, with “the permanent cerebral ischemia model” for “the ischemic reperfusion”, “up.” for “up. After 2 h, the thread was pulled out to achieve reperfusion.”, “before insertion of thread” for “before reperfusion”, “after embolism,” for “after reperfusion,”
as §2, with “the embolism,” for “reperfusion,”, “−20°i” for “−20° i”
as §3

In test [5] the test system is MDA. As to the kind of experiment: MDA determination, permanent cerebral ischemia model. As to the method:
as §1, with “the permanent cerebral ischemia model” for “the ischemic reperfusion”, “up.” for “up. After 2 h, the thread was pulled out to achieve reperfusion.”, “before insertion of thread” for “before reperfusion”, “after embolism,” for “after reperfusion,”
as §2, with “the embolism,” for “reperfusion,”, “−20°i” for “−20° i”
as §3

Test [6] relates to Fas. Briefly: Fas determination (immunohistochemical method), permanent cerebral ischemia model. How it is done: as §1, with “the permanent cerebral ischemia model” for “the ischemic reperfusion”, “up.” for “up. After 2 h, the thread was pulled out to achieve reperfusion.”, “before insertion of thread” for “before reperfusion”, “after embolism,” for “after reperfusion,”
as §2, with “the embolism,” for “reperfusion,”, “−20°i” for “−20° i”
as §4

On to `CC(C)c1cccc(C(C)C)c1O` [Propofol injection, propofol, reference compound], for which the entries for the “SOD ACTIVITY (U/mL)” value in the test with SOD [1] and in the test on SOD [4] were 88.25 ± 2.19 U/mL and 89.13 ± 3.82 U/mL, respectively. Moreover, the results for the “MDA CONTENT” value in the test on MDA [2] and in the test on MDA [5] were 5.58 ± 0.48 mmol/mL and 6.10 ± 0.29 mmol/mL, respectively. In addition, the “Fas average gray scale” value in the test with Fas [3] turned out to be 142.15 ± 5.71. In addition, the “Fas average gray value” in the test with Fas [6] worked out at 140.51 ± 4.84.

The values are drawn from patent US10329243B2, “Biphenyl derivative and uses thereof” (XI'AN LIBANG PHARMACEUTICAL CO., LTD, priority 2015, dated 2019).
